Converted amounts (≈) assume the structure as drawn. Where a name gives a salt, the structure may show the parent alone. Values belong to the compound of their own block, whether it stands above or below them.
Columns and labels:
[1] = Salt stability and hygroscopicity evaluation; format: physicochemical; details: for hygroscopicity of the salt: salt from Protocol 4; for stability of the salt: salt from Protocol 4, XRPD analysis
[2] = Thermodynamic aqueous solubility by HPLC; format: physicochemical; details: salt from Protocol 4
[3] = Dog bioavailability study; format: in vivo, beagle dogs
Protocol: The dogs are not fasted before dosing, and have free access to water. Every day of the treatment, a half food ration is provided after the T0 blood sampling, 8 to 17 min before treatment, and the second half ration is given just after dosing or 1 h after treatment for period 2. A 3 days washout period is ensured between treatments.
The capsule composition is described in Table XX below.
The capsules are administered orally with water (5-10 mL), to provide good oesophageal transit. Each animal is checked at least once daily.
Blood is collected from the jugular vein into lithium heparinised tubes at T0 (before food administration) and then at 1 h, 2 h, 4 h, 6 h, 8 h, 10 h, and 24 h post treatment.
Plasma is then obtained from blood by centrifugation (2500 g for 10 min at 4° C.), and stored at −20° C. until analysis.
After vortex mixing and centrifugation at 4° C., the supernatants are diluted with a 0.5 volume of HPLC grade water in a midi-eppendorf 96-well plate. The plate is sealed and shaken to ensure sample homogeneity prior to analysis.
Pharmacokinetic analysis is performed using WinNonlin™ software version 5.3, using concentrations from individual animals. Non-compartmental analysis is applied to determine the PK parameters (Cmax, Tmax, AUC0-last, t1/2, etc. . . . )
Concentrations below the limit of detection are set to zero for descriptive statistics and PK parameter calculations.

[4] = Solubility study in different solvents; format: physicochemical
Protocol: The supersaturated solution is then filtered and the concentration of product in the filtrate is determined using UV-spectrometry.
In water, the influence of the pH is adjusted to pH 2, pH 7, and pH 9. HCl and NaOH are used to adjust the pH.

[5] = tested on: MMP13 levels in human chondrosarcoma cell line SW1353; experiment: cells; details: SW1353, 48 h, read-out: OSM/IL-1β signaling EC50
Protocol: The cells are seeded in 96 well plates at 15,000 cells/well in a volume of 120 μL DMEM (Invitrogen) containing 10% (v/v) FBS and 1% penicillin/streptomycin (InVitrogen) incubated at 37° C./5% CO2. Cells are preincubated with 15 μL of compound in M199 medium with 2% DMSO 1 hr before triggering with 15 μL OSM and IL-1P to reach 25 ng/mL OSM and 1 ng/mL IL-1β, and MMP13 levels are measured in conditioned medium 48 h after triggering. MMP13 activity is measured using an antibody capture activity assay. For this purpose, 384 well plates (NUNC, 460518, MaxiSorb black) are coated with 35 μL of a 1.5 μg/mL anti-human MMP13 antibody (R&D Systems, MAB511) solution for 24 hrs at 4° C. After washing the wells 2 times with PBS+0.05% Tween, the remaining binding sites are blocked with 100 μL 5% non-fat dry milk (Santa Cruz, sc-2325, Blotto) in PBS for 24 hr at 4° C. […] After incubation for 24 hrs at 37° C. fluorescence of the converted substrate is measured in a Perkin Elmer Wallac EnVision 2102 Multilabel Reader (wavelength excitation: 320 nm, wavelength emission: 405 nm). Percentage inhibition=((fluorescence determined in the presence of vehicle−fluorescence determined for sample with test compound present) divided by (fluorescence determined in the presence of vehicle−fluorescence determined for sample without trigger))*100.

[6] = oral capsules, on average and at the 2 capsule strengths, FIG. 10

SMILES: O=C(O)/C=C\C(=O)O [Compound 1 maleic acid salt]
hygroscopicity of the salt [1]: non-hygroscopic

SMILES: Cl.O.O.O.O=C(Nc1nc2cccc(-c3ccc(CN4CCS(=O)(=O)CC4)cc3)n2n1)C1CC1 [Compound 1.HCl.3H2O]
in vivo exposure compared with Compound 1 [3, 6]: improved exposure | rate of absorption compared with Compound 1 [3, 6]: more rapidly absorbed | solubility ([4]; 0.005M HCl, 20° C.): 3100 µg/mL

The next lines start with results.

hygroscopicity of the salt [1]: non-hygroscopic | stability of the salt [1]: stable | aqueous solubility [2]: 1900 µg/mL
SMILES: Cl.O=C(Nc1nc2cccc(-c3ccc(CN4CCS(=O)(=O)CC4)cc3)n2n1)C1CC1 [Compound 1 HCl salt]

stability of the salt [1]: stable | solubility ([2]; water): 400 µg/mL
SMILES: O=C(Nc1nc2cccc(-c3ccc(CN4CCS(=O)(=O)CC4)cc3)n2n1)C1CC1.O=C(O)/C=C\C(=O)O [Compound 1 maleic acid salt]

half-life ([3]; male, beagle, plasma, 10 mg/kg, single oral administration, range over both forms and both capsule strengths): 4.43 to 8.96 h | solubility ([4]; 0.01M HCl + 2.0% Tweet 80 (so in the source); presumably Tween 80), pH 2, aqueous with cosolvent or surfactant or cyclodextrin, thermodynamic from solid, 0.01M HCl + 2.0% Tweet 80, 20° C., read-out: Solubility): 313 µg/mL | solubility ([4]; aqueous with cosolvent or surfactant or cyclodextrin, thermodynamic from solid, Acetonitrile/water (1/1), 20° C., read-out: Solubility): 1570 µg/mL (≈ 3690 µM) | solubility ([4]; aqueous with cosolvent or surfactant or cyclodextrin, thermodynamic from solid, HP-β-CD 40% pH 2, 20° C., read-out: Solubility): 577 µg/mL (≈ 1360 µM) | solubility ([4]; aqueous with cosolvent or surfactant or cyclodextrin, thermodynamic from solid, HP-β-CD 40% pH 4, 20° C., read-out: Solubility): 520 µg/mL (≈ 1220 µM) | solubility ([4]; aqueous with cosolvent or surfactant or cyclodextrin, thermodynamic from solid, Water/ethanol 1/1, 20° C., read-out: Solubility): 327 µg/mL (≈ 768 µM) | solubility ([4]; organic solvent or mixture, thermodynamic from solid, Acetone, 20° C., read-out: Solubility): 420 µg/mL (≈ 987 µM) | solubility ([4]; organic solvent or mixture, thermodynamic from solid, Acetonitrile, 20° C., read-out: Solubility): 605 µg/mL (≈ 1420 µM) | solubility ([4]; organic solvent or mixture, thermodynamic from solid, Acetonitrile/water (4/1), 20° C., read-out: Solubility): 3110 µg/mL (≈ 7310 µM) | solubility ([4]; organic solvent or mixture, thermodynamic from solid, Dichloromethane, 20° C., read-out: Solubility): 5660 µg/mL (≈ 13300 µM) | solubility ([4]; organic solvent or mixture, thermodynamic from solid, Ethanol, 20° C., read-out: Solubility): 151 µg/mL (≈ 355 µM) | solubility ([4]; organic solvent or mixture, thermodynamic from solid, Methanol, 20° C., read-out: Solubility): 432 µg/mL (≈ 1020 µM) | solubility ([4]; organic solvent or mixture, thermodynamic from solid, PEG400, 20° C., read-out: Solubility): 1530 µg/mL (≈ 3600 µM) | solubility ([4]; organic solvent or mixture, thermodynamic from solid, Propanol, 20° C., read-out: Solubility): 134 µg/mL (≈ 315 µM) | solubility ([4]; organic solvent or mixture, thermodynamic from solid, Propylene glycol, 20° C., read-out: Solubility): 464 µg/mL (≈ 1090 µM) | solubility ([4]; organic solvent or mixture, thermodynamic from solid, Tetrahydrofuran, 20° C., read-out: Solubility): 740 µg/mL (≈ 1740 µM) | solubility ([4]; organic solvent or mixture, thermodynamic from solid, t-butyl methyl ether, 20° C., read-out: Solubility): < 2.39 µg/mL | solubility ([4]; pH 2, simulated gastric fluid, thermodynamic from solid, 0.01M HCl, 20° C., read-out: Solubility): 288 µg/mL (≈ 677 µM) | solubility ([4]; pH adjusted with HCl/NaOH, aqueous buffer, thermodynamic from solid, Water pH 2, 20° C., read-out: Solubility): 291 µg/mL (≈ 684 µM) | solubility ([4]; pH adjusted with HCl/NaOH, aqueous buffer, thermodynamic from solid, Water pH 7, 20° C., read-out: Solubility): 4.32 µg/mL (≈ 10.2 µM) | solubility ([4]; pH adjusted with HCl/NaOH, aqueous buffer, thermodynamic from solid, Water pH 9, 20° C., read-out: Solubility): 4.29 µg/mL (≈ 10.1 µM) | solubility ([4]; thermodynamic from solid, Water (purified), 20° C., read-out: Solubility): 3.84 µg/mL (≈ 9.02 µM)
SMILES: O=C(Nc1nc2cccc(-c3ccc(CN4CCS(=O)(=O)CC4)cc3)n2n1)C1CC1 [Compound 1, cyclopropanecarboxylic acid {5-[4-(1,1-dioxo-thiomorpholin-4-ylmethyl)-phenyl]-[1,2,4]triazolo[1,5-a]pyridin-2-yl}-amide]
EC50 [5]: 2240 nM
